Data on three molecules can be found in patent US5744492A, “Method for inhibiting angiogenesis” (United States of America, priority 1994, dated 1998).

Assay [1] concerns chick chorioallantoic membrane. Description: Chick chorioallantoic membrane (CAM) angiogenesis assay. Format: in vivo. How it is done: The chick chorioallantoic or yolk sac membrane (CAM) assays for angiogenesis are important in vivo models of microvessel formation. […] Briefly, fertilized chick embryos with the yolk intact were removed from their shells on day 3 of development and incubated at 37° C.

Assay [2] deals with MMP-2. Description: Northern blot analysis of MMP-2 expression in HUVECs. Format: cell-based, human. Particulars: bFGF 10 ng/mL alone, 24 hr. How it is done: (§1) Human umbilical vein endothelial cells (H 930) were generously supplied by Dr. Tom Maciag, American Red Cross (Gaithersburg, Md., USA) and were used between passages 9 and 14 to avoid senescence. HUVECs were grown on fibronectin-coated tissue culture plastic (200 μg/150 mm dish) in complete medium (Medium 199 (M-199) containing 5 U/mL preservative-free heparin, 25.5 μg/mL ECGS, 10% fetal bovine serum and 100 U/mL penicillin, 100 μg/mL streptomycin, and 0.25 μg/mL fungizone).
(§2) HUVECs were grown to confluence as described. Fresh complete medium with test compounds was added to confluent cells for an additional 24 hr incubation. bFGF (10 ng/mL), and/or compound 1 (10 μM) or DMSO control (0.1%) were added as indicated below. Total RNA was isolated by the guanidine isothiocyanate/CsCl method. Aliquots of RNA (7.5 μg) were separated on 1% agarose/formaldehyde gels, passively transferred to GeneScreen Plus membrane in 20X SSC, then cross-linked with ultraviolet light. Blots were prewashed for 1 hr at 42° C. in 1M NaCl, 10 mM Tris, 1 mM EDTA, 0.1% SDS and then hybridized overnight at 42° C. with a formamide-containing buffer (hybridization buffer final: 50% formamide, 4X SSC, 10 mM Tris pH 7.5, IX Denhardt solution, 0.2% SDS, 125 μg/ml salmon sperm DNA) with a random-primed 300 bp insert for MMP-2 (gift of Dr. William Stetler-Stevenson, Laboratory of Pathology, NCI). Blots were washed under stringent conditions then exposed to film. After removal of MMP-2 probe, blots were rehybridized with β-actin probe for quantitation of the RNA load. Results were quantitated by densitometric evaluation of the autoradiographs.
(§3) Lane 1 corresponds to the mRNA from HUVECs treated with DMSO (control). Lanes 2-4 show the mRNA isolated from HUVECs treated with compound 1 (10 μM) alone, compound 1 (10 μM) and bFGF (10 ng/mL), bFGF (10 ng/mL) alone, respectively.

Assay [3] has as its system β-actin. The assay can be described thus: Northern blot, β-actin probe for quantitation of RNA load in HUVECs. Particulars: bFGF 10 ng/mL alone, 24 hr. It is filed as cell-based, human. As for the experimental part: as §1, §2, §3
[4] abbreviates: positive control, 60μ (text: 60 μg).

In the case of `NC(=O)c1nc[nH]c1N` [AIC, aminoimidazole carboxamide, reference compound], in assay [1] (10 μM, 48 hr), the “% Inhibition (capillary formation in vivo)” value worked out at 16% and the “Eggs with avascular zones/total” value was 4/24. The “angiogenesis inhibitory effect (in words)” value in assay [1] (10 or 20 μM, 48 hr) was “inactive”.
As to `C[C@]12CCC(=O)C=C1CC[C@@H]1[C@@H]2[C@@H](O)C[C@@]2(C)[C@H]1CC[C@]2(O)C(=O)CO` [Hydrocortisone, hydrocortisone, reference compound], in assay [1] (setting [4]), the “% Inhibition (capillary formation in vivo)” value stood at 55% and the “Eggs with avascular zones/total” value was 10/18.
Regarding “bFGF: Recombinant basic fibroblast growth factor (bFGF)”, in assay [2], the “Corrected values (MMP-2 mRNA corrected for loading)” value is reported as 0.37 and the “MMP-2 (densitometer)” value is listed as 77 Densitometer units. In assay [3], the “β-actin (densitometer)” value was determined as 205 Densitometer units.
